Measured values from patent publication US7579468B2, “Methods of modulating neurotrophin-mediated activity” (PainCeptor Pharma Corporation, priority 2005, dated 2009).

Test system: HEK_TrkA: TrkA alone (human TrkA)
Assay: 125I-NGF binding displacement in HEK_TrkA cells
Details: individual experiment
Experimental: All cells were incubated at 37° C. in 5% CO2. PC12 cells were maintained in RPMI-1640 medium supplemented with 10% fetal bovine serum (FBS). A875 human melanoma cells were maintained in DMEM with 10% FBS. HEK 293 cells were stably transfected with human TrkA plasmid (see below) and maintained in DMEM with 10% FBS and G418 (600 μg/mL) for selection.
Expression of human TrkA in HEK cells was achieved by transfecting the cells with the TrkA expression vector using Lipofectamine (Invitrogen) reagent. HEK cells were plated in 100 mm Petri dishes at a concentration of 10^6 cells per dish. The next day, a solution of DNA diluted in 1 mL OptiMEM (Invitrogen) per dish was prepared and incubated for 15 min at room temperature. […]
NGF binding was evaluated using methods familiar to those who are skilled in the art. […] Non-specific binding was determined for reference by incubating ^125I-NGF with an excess of non-radioactive NGF in the absence of compound. Following a two-hour incubation period at 4° C., ^125I-NGF bound to the cells was quantified in a gamma radiation counter following separation from unbound NGF by filtration or centrifugation through glycerol (10% in HKR). Inhibition of binding was calculated as a percent of the specific binding (calculated as the differential between ^125I-NGF binding in the absence and presence of an excess of non-radioactive NGF without compound). […]

CC(=O)Nc1cc2c3c(cc(NC(C)=O)cc3c1)C(=O)N(CCCC(=O)O)C2=O [Compound 11, 4-(5,8-Bis-acetylamino-1,3-dioxo-1H,3H-benzo[de]isoquinolin-2-yl)-butyric acid]
NGF binding displacement, dose-response curve: effectively blocks NGF binding to TrkA
